Assay results: publication PMC6857076 (Pharmacology Research & Perspectives, 2019)
Like-named read-outs stand apart in the source and are kept apart here.

Experiments:
[1] = tested on: IL-13 cytokine receptor (JAK1/JAK2, JAK1/TYK2); assay: Human whole blood, IL-13-induced pSTAT6, CD14+ cells; format: cell-based
Experimental: Blood was warmed to 37°C prior to use.
(§1) Anti‐cell surface antibodies were added 15 minutes prior to cytokine stimulation; anti‐CD14‐Pacific Blue (0.5 µL/well) to GM‐CSF, IFNγ, and TPO‐treated samples; anti‐CD3‐BV650 (0.5 µL/well) plus anti‐CD14‐Pacific Blue (0.5 µL/well) to IL‐6‐treated samples; and anti‐CD19‐BV421 (0.5 µL/well) plus anti‐CD14‐AF488 (0.5 µL/well) to IL‐13‐treated samples.
(§2) The lymphocyte population was gated for pSTAT histogram analysis for IFNα‐, IL‐2‐, IL‐3‐, IL‐4‐, IL‐7‐, IL‐10‐, IL‐12‐, IL‐15‐, IL‐21‐, IL‐23‐, and IL‐27‐treated samples; granulocyte population for G‐CSF‐treated samples; CD14^+ cells for GM‐CSF‐, IFNγ‐, and TPO‐treated samples; CD3^+ cells and CD14^+ cells for IL‐6‐treated samples; CD14^+ cells and CD19^+ cells for IL‐13‐treated samples; all events (entire populations) for EPO‐treated cells. Background fluorescence was defined using unstimulated cells and a gate was placed at the foot of the peak to include ~0.5% gated population.
(§3) Histogram statistical analysis was performed using FACSDiva version 8.0.1 (BD Biosciences). Relative fluorescence unit (RFU), which measures the level of pSTAT, was calculated by multiplying the percent positive population and its mean fluorescence. Data from 11 compound concentrations (singlicate at each concentration) were normalized as a percentage of control, as shown in Equation 1:(1) %ofcontrol=100×A−B/C−B
(§4) A, RFU from wells containing compound and cytokine; B, RFU from wells without cytokine (minimum fluorescence); C, RFU from wells containing only cytokine (maximum fluorescence).
(§5) Inhibition curves and IC50 values were determined using Prism software (Version 7, GraphPad).

[2] = human; filgotinib 200 mg QD; cited from earlier work
[3] = tested on: IL-4 cytokine receptor (JAK1/JAK3); assay: Human whole blood, IL-4-induced pSTAT6, lymphocytes; format: cell-based; conditions: Lymphocyte
Experimental: Blood was warmed to 37°C prior to use.
(§6) Then, 5 µL of PBS or cytokine was added to each well (5 µL/well; final, 10 U/mL EPO, 100 ng/mL G‐CSF, 10 ng/mL GM‐CSF, 5000 U/mL IFNα, 100 ng/mL IFNγ, 50 ng/mL IL‐2, 50 ng/mL IL‐3, 5 ng/mL IL‐4, 50 ng/mL IL‐6, 30 ng/mL IL‐7, 30 ng/mL IL‐10, 30 ng/mL IL‐12, 30 ng/mL IL‐13, 30 ng/mL IL‐15, 50 ng/mL IL‐21, 25 ng/mL IL‐23, 1000 ng/mL IL‐27) and incubated for 15 minutes. Anti‐cell surface antibodies were added 15 minutes prior to cytokine stimulation; anti‐CD14‐Pacific Blue (0.5 µL/well) to GM‐CSF, IFNγ, and TPO‐treated samples; anti‐CD3‐BV650 (0.5 µL/well) plus anti‐CD14‐Pacific Blue (0.5 µL/well) to IL‐6‐treated samples; and anti‐CD19‐BV421 (0.5 µL/well) plus anti‐CD14‐AF488 (0.5 µL/well) to IL‐13‐treated samples.
(§7) One more wash was done with staining buffer and all samples were finally suspended in 150 µL/well of the desired anti‐pSTAT antibodies at 1:150 dilution in staining buffer; anti‐pSTAT1‐AF647 in IFNγ‐treated samples; anti‐pSTAT1‐AF488 and anti‐pSTAT3‐AF647 in IFNα‐, IL‐6‐, and IL‐27‐treated samples; anti‐pSTAT3‐AF647 in G‐CSF‐, IL‐10‐, IL‐21‐, and IL‐23‐treated samples; anti‐pSTAT4‐AF647 in IL‐12‐treated samples; anti‐pSTAT5‐AF647 in EPO‐, GM‐CSF‐, IL‐2‐, IL‐3‐, IL‐7‐, IL‐15‐, and TPO‐treated samples; anti‐pSTAT5‐AF488 and anti‐pSTAT6‐AF647 in IL‐4‐treated samples; and anti‐pSTAT6‐AF647 in IL‐13‐treated samples.
as §2, §3, §4, §5

[4] = tested on: IL-3 cytokine receptor (JAK2/JAK2); assay: Human whole blood, IL-3-induced pSTAT5, lymphocytes; format: cell-based
Experimental: Blood was warmed to 37°C prior to use.
as §6, §7, §2, §3, §4, §5

[5] = tested on: IL-21 cytokine receptor (JAK1/JAK3); assay: Human whole blood, IL-21-induced pSTAT3, lymphocytes; format: cell-based; conditions: Lymphocyte
Experimental: Blood was warmed to 37°C prior to use.
as §6, §7, §2, §3, §4, §5

[6] = tested on: IL-7 cytokine receptor (JAK1/JAK3); assay: Human whole blood, IL-7-induced pSTAT5, lymphocytes; format: cell-based; conditions: Lymphocyte
Experimental: Blood was warmed to 37°C prior to use.
as §6, §7, §2, §3, §4, §5

[7] = tested on: IL-6 cytokine receptor (JAK1/JAK2, JAK1/TYK2); assay: Human whole blood, IL-6-induced pSTAT1, CD14+ cells; format: cell-based
Experimental: Blood was warmed to 37°C prior to use.
as §1, §2, §3, §4, §5

[8] = tested on: EPO cytokine receptor (JAK2/JAK2); assay: Human whole blood spiked with CD34+-derived erythroid progenitor cells, EPO-induced pSTAT5; format: cell-based; conditions: for IC50: Erythroid progenitor cell, human whole blood
Experimental: CD34^+ cells were then harvested, washed once with Dulbecco's (D)‐PBS, and suspended at 0.5 x 10^6 cells/mL in human whole blood to be used in the EPO stimulation assay.
Blood was warmed to 37°C prior to use.
Background fluorescence was defined using unstimulated cells and a gate was placed at the foot of the peak to include ~0.5% gated population.
as §3, §4, §5

[9] = tested on: IFNγ cytokine receptor (JAK1/JAK2); assay: Human whole blood, IFNγ-induced pSTAT1, CD14+ cells; format: cell-based; conditions: for IC50: Homo sapiens
Experimental: Blood was warmed to 37°C prior to use.
as §6, §7, §2, §3, §4, §5

[10] = tested on: IFNα cytokine receptor (JAK1/TYK2); assay: Human whole blood, IFNα-induced pSTAT3, lymphocytes; format: cell-based; conditions: Lymphocyte
Experimental: Blood was warmed to 37°C prior to use.
as §6, §7, §2, §3, §4, §5

[11] = tested on: IL-15 cytokine receptor (JAK1/JAK3); assay: Human whole blood, IL-15-induced pSTAT5, lymphocytes; format: cell-based; conditions: for IC50: Homo sapiens, Lymphocyte
Experimental: Blood was warmed to 37°C prior to use.
as §6, §7, §2, §3, §4, §5

[12] = phase 3 RA studies; cited from earlier work
[13] = tested on: IL-12 cytokine receptor (JAK2/TYK2); assay: Human whole blood, IL-12-induced pSTAT4, lymphocytes; format: cell-based; conditions: for IC50: Homo sapiens, Lymphocyte
Experimental: Blood was warmed to 37°C prior to use.
as §6, §7, §2, §3, §4, §5

[14] = tested on: CRP; conditions: RA; filgotinib 200 mg QD; cited from earlier work
[15] = tested on: GM-CSF cytokine receptor (JAK2/JAK2); assay: Human whole blood, GM-CSF-induced pSTAT5, CD14+ cells; format: cell-based
Experimental: Blood was warmed to 37°C prior to use.
as §6, §7, §2, §3, §4, §5

[16] = tested on: IL-2 cytokine receptor (JAK1/JAK3); assay: Human whole blood, IL-2-induced pSTAT5, lymphocytes; format: cell-based; conditions: Lymphocyte
Experimental: Blood was warmed to 37°C prior to use.
as §6, §7, §2, §3, §4, §5

[17] = in vitro; conditions: both, human, pooled human plasma
[18] = tested on: IL-27 cytokine receptor (JAK1/JAK2, JAK1/TYK2); assay: Human whole blood, IL-27-induced pSTAT3, lymphocytes; format: cell-based; conditions: Lymphocyte
Experimental: Blood was warmed to 37°C prior to use.
as §6, §7, §2, §3, §4, §5

[19] = tested on: IL-10 cytokine receptor (JAK1/TYK2); assay: Human whole blood, IL-10-induced pSTAT3, lymphocytes; format: cell-based; conditions: Lymphocyte
Experimental: Blood was warmed to 37°C prior to use.
as §6, §7, §2, §3, §4, §5

[20] = tested on: IL-6 cytokine receptor (JAK1/JAK2, JAK1/TYK2); assay: Human whole blood, IL-6-induced pSTAT1, CD3+ cells; format: cell-based; conditions: for IC50: Homo sapiens
Experimental: Blood was warmed to 37°C prior to use.
as §6, §7, §2, §3, §4, §5

[21] = tested on: IL-27 cytokine receptor (JAK1/JAK2, JAK1/TYK2); assay: Human whole blood, IL-27-induced pSTAT1, lymphocytes; format: cell-based; conditions: Lymphocyte
Experimental: Blood was warmed to 37°C prior to use.
as §1, §2, §3, §4, §5

[22] = tested on: TPO cytokine receptor (JAK2/JAK2); assay: Human whole blood, TPO-induced pSTAT5, CD14+ cells; format: cell-based
Experimental: Blood was warmed to 37°C prior to use.
as §6, §7, §2, §3, §4, §5

[23] = tested on: IL-6 cytokine receptor (JAK1/JAK2, JAK1/TYK2); assay: Human whole blood, IL-6-induced pSTAT3, CD3+ cells; format: cell-based
Experimental: Blood was warmed to 37°C prior to use.
as §1, §2, §3, §4, §5

[24] = tested on: IFNα cytokine receptor (JAK1/TYK2); assay: Human whole blood, IFNα-induced pSTAT1, lymphocytes; format: cell-based; conditions: for IC50: Homo sapiens, Lymphocyte
Experimental: Blood was warmed to 37°C prior to use.
as §6, §7, §2, §3, §4, §5

[25] = unbound, Cav × fu; filgotinib 200 mg QD
[26] = tested on: IL-13 cytokine receptor (JAK1/JAK2, JAK1/TYK2); assay: Human whole blood, IL-13-induced pSTAT6, CD19+ cells; format: cell-based
Experimental: Blood was warmed to 37°C prior to use.
as §1, §2, §3, §4, §5

O=C(Nc1nc2cccc(-c3ccc(CN4CCS(=O)(=O)CC4)cc3)n2n1)C1CC1 [Filgotinib]
IC50 ([1]; read-out: IC50, IL-13, pSTAT6, CD14+ cells): 5.14 µM | IC50 ([1]; read-out: IC50,u, IL-13, pSTAT6, CD14+ cells): 2.06 µM | Cav [2]: 474 nmol/L | IC50 ([3]; read-out: IC50, IL-4, pSTAT6): 3620 nM | IC50 ([3]; read-out: IC50,u, IL-4, pSTAT6): 1460 nM | IC50 ([4]; Homo sapiens, Lymphocyte, read-out: IC50, IL-3, pSTAT5): > 20 µM | IC50, IL-3, pSTAT5 ([4]; human whole blood, four donors, mean (SD), lymphocytes, JAK2/JAK2, IL-3 50 ng/mL): not measurable | IC50 ([5]; read-out: IC50, IL-21, pSTAT3): 3980 nM | IC50 ([5]; read-out: IC50,u, IL-21, pSTAT3): 1600 nM | IC50 ([6]; read-out: IC50, IL-7, pSTAT5): 3620 nM | IC50 ([6]; read-out: IC50,u, IL-7, pSTAT5): 1460 nM | IC50 ([7]; read-out: IC50, IL-6, pSTAT1, CD14+ cells): 810 nM | IC50 ([7]; read-out: IC50,u, IL-6, pSTAT1, CD14+ cells): 325 nM | IC50 ([8]; Figure S1F, Donor 573, Exp 1, one of four experiments, read-out: IC50, EPO induced pSTAT5, single experiment): 7.58 µM | IC50 ([8]; four donors, mean (SD), erythroid progenitor cells, JAK2/JAK2, EPO 10 U/mL, read-out: IC50, EPO, pSTAT5): 9.89 µM | IC50 ([8]; unbound (IC50/blood:plasma ratio × fu), erythroid progenitor cells, JAK2/JAK2, read-out: IC50,u, EPO, pSTAT5): 3.97 µM | LogIC50, EPO induced pSTAT5, single experiment ([8]; Figure S1F, Donor 573, Exp 1): -5.121 log[M] | LogIC50, IFNγ induced pSTAT1, single experiment [9]: -5.17 log[M] | IC50 ([9]; read-out: IC50, IFNγ induced pSTAT1, single experiment): 6.76 µM | IC50 ([9]; read-out: IC50, IFNγ, pSTAT1): 6.95 µM | IC50 ([9]; read-out: IC50,u, IFNγ, pSTAT1): 2.79 µM | IC50 ([10]; read-out: IC50, IFNα, pSTAT3): 1060 nM | IC50 ([10]; read-out: IC50,u, IFNα, pSTAT3): 425 nM | LogIC50, IL-15 induced pSTAT5, single experiment [11]: -5.526 log[M] | IC50 ([11]; read-out: IC50, IL-15, pSTAT5): 3380 nM | IC50 ([11]; read-out: IC50, IL-15 induced pSTAT5, single experiment): 2980 nM | IC50 ([11]; read-out: IC50,u, IL-15, pSTAT5): 1360 nM | herpes zoster occurrence [12]: reported | LogIC50, IL-12 induced pSTAT4, single experiment [13]: -5.125 log[M] | IC50 ([13]; read-out: IC50, IL-12, pSTAT4): 8.03 µM | IC50 ([13]; read-out: IC50, IL-12 induced pSTAT4, single experiment): 7.51 µM | IC50 ([13]; read-out: IC50,u, IL-12, pSTAT4): 3.22 µM | reduction of CRP levels from baseline to week 12 [14]: -14.9 mg/L | IC50 ([15]; Homo sapiens, read-out: IC50, GM-CSF, pSTAT5): > 20 µM | IC50, GM-CSF, pSTAT5 ([15]; human whole blood, four donors, mean (SD), CD14+ cells, JAK2/JAK2, GM-CSF 10 ng/mL): not measurable | IC50 ([16]; read-out: IC50, IL-2, pSTAT5): 2660 nM | IC50 ([16]; read-out: IC50,u, IL-2, pSTAT5): 1070 nM | fraction unbound at 6 h, 1 μmol/L [17]: 0.49 | IC50 ([18]; read-out: IC50, IL-27, pSTAT3): 1160 nM | IC50 ([18]; read-out: IC50,u, IL-27, pSTAT3): 468 nM | IC50 ([19]; read-out: IC50, IL-10, pSTAT3): 2550 nM | IC50 ([19]; read-out: IC50,u, IL-10, pSTAT3): 1020 nM | LogIC50, IL-6 induced pSTAT1 (CD3+ cells), single experiment [20]: -6.12 log[M] | IC50 ([20]; read-out: IC50, IL-6, pSTAT1, CD3+ cells): 671 nM | IC50 ([20]; read-out: IC50, IL-6 induced pSTAT1 (CD3+ cells), single experiment): 759 nM | IC50 ([20]; read-out: IC50,u, IL-6, pSTAT1, CD3+ cells): 270 nM | IC50 ([21]; read-out: IC50, IL-27, pSTAT1): 2110 nM | IC50 ([21]; read-out: IC50,u, IL-27, pSTAT1): 848 nM | IC50 ([22]; Homo sapiens, read-out: IC50, TPO, pSTAT5): > 17.6 µM | IC50, TPO, pSTAT5 ([22]; human whole blood, four donors, mean (SD), CD14+ cells, JAK2/JAK2): not measurable | IC50 ([23]; read-out: IC50, IL-6, pSTAT3, CD3+ cells): 4.94 µM | IC50 ([23]; read-out: IC50,u, IL-6, pSTAT3, CD3+ cells): 1.98 µM | LogIC50, IFNα induced pSTAT1, single experiment ([24]; Figure S1B, Donor 256, Exp 1): -5.931 log[M] | IC50 ([24]; read-out: IC50, IFNα induced pSTAT1, single experiment): 1170 nM | IC50 ([24]; read-out: IC50, IFNα, pSTAT1): 1320 nM | IC50 ([24]; read-out: IC50,u, IFNα, pSTAT1): 531 nM | Cav,u [25]: 232.0 nmol/L | IC50 ([26]; read-out: IC50, IL-13, pSTAT6, CD19+ cells): 2120 nM | IC50 ([26]; read-out: IC50,u, IL-13, pSTAT6, CD19+ cells): 853 nM
